The numbers were not newly measured in patent US9387185B2, “N-ω-hydroxy-L-arginine derivatives for the treatment of diseases” (Christian-Albrechts-Universität Zu Kiel, priority 2009, dated 2016), which cites them from elsewhere.

Data set [1] deals with rats. The settings on record: i.v.
Data set [2] addresses T1, arginase I (Homo sapiens, UniProt P05089).
T1 sequence (P05089 1-322): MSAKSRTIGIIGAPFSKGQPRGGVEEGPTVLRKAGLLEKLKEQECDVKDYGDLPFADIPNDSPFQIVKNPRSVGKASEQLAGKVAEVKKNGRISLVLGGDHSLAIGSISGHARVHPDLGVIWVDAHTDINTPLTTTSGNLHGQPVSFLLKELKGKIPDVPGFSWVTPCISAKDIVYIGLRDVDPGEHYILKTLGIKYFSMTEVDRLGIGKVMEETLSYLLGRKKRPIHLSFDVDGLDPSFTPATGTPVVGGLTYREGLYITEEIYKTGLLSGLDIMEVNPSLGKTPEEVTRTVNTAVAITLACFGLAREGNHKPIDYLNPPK

As usually defined, the Ki is the equilibrium dissociation constant of an inhibitor or competing ligand from its target. Regarding `N=C(NO)NCCC[C@H](N)C(=O)O` [NOHA, N^ω-hydroxy-L-arginine], the “effects for treating the erectile dysfunction, endothelial dysfunction and hypertension” value in data set [1] is “desired effects for treating the erectile dysfunction, endothelial dysfunction and hypertension could already be demonstrated”. For the same molecule, the Ki in data set [2] was 30 to 42 µM.
